We go through one compound from patent EP1151753B1, “PREVENTIVE AND THERAPEUTIC AGENTS FOR ARTERIOSCLEROSIS” (CCI CORPORATION, priority 1999, dated 2000).

Data set [1] can be described thus: Biochemical test of blood and measurement of body weight, WHHL rabbit model. The data set is classed as in vivo, WHHL type rabbits. Conditions: WHHL rabbits. The protocol: Now, the pharmacogenic effect of the agent of this invention for preventing and curing arteriosclerosis will be described specifically below with reference to a pharmacological test using high cholesterol-loaded rabbits and the WHHL (Watanabe heritable hyperlipidemic) rabbits forming a model of the familial high-cholesterol blood disease. The data were wholly reported by the average ± standard error (SE) and the significant differences among separate groups were determined by the Student's t-test. The risk factor, p < 0.05, was rated as forming a significance of difference.
1. Animal used and feeding conditions In the test, female and male WHHL type rabbits (SPF: Kitayama Labels K.K.) which were eight weeks old at the time of arrival at the laboratory were subjected to quarantine and domestication and visually inspected as to the general condition and, after the absence of abnormality was confirmed, put to use. The body weights at the time of starting administration (at the age of nine weeks) were in the range of 1.5 - 1.9 kg in the case of male rabbits and in the range of 1.4 - 1.8 kg in the case of female rabbits. Throughout the entire duration of the test, the animals were raised as accommodated one each in hanger cages of aluminum installed on a stainless steel rack inside a clean feeding chamber set at a temperature in the range of 20 - 26°, a relative humidity in the range of 40 - 70%, a number of ventilations in the range of 10 - 20 turns/hour, and an illumination time within the range of 12 hours (7.00 - 19:00). They were fed on a commercially available radioactively sterilized solid feed (made by Oriental Kobo K.K. and sold under the product code of "RC4") and they were left freely drinking the tap water delivered by an automatic water supplying device. 2. Setting dosage and method of administration The dosage of TMG was set at 800 mg/head/day. The TMG was solved in reagent grade ethanol. The produced solution was sprayed on the feed and the wet feed was left drying in the air. A mixed feed was prepared so as to contain 800 mg of TMG per 100 g of the feed. The mixed feed was given to the rabbits every morning at a rate of 100 g/day per head for 27 weeks for the sake of attaining oral consumption of the TMG. The feed for the control group was obtained by spraying ethanol alone on a feed and air-drying the wet feed. It was given to the rabbits of the control group at a rate of 100 g/day per head for 27 weeks. 3. Formation of groups and number of animals A control group and a TMG-administration group were formed; each group consistingof threemales and three females, namely a total of six rabbits. These animals were apportioned to the two groups randomly and nevertheless elaborately so as to avoid confusion of the children of one brood in either group to the fullest possible extent and equalize as much as permissible the average body weights and the average total cholesterol numbers in blood serum of the two groups with the body weights and the total cholesterol numbers found at the time of completion of the domestication. 4. […] The blood was centrifuged to separate blood serum and the blood serum was analyzed for the items shown in Table 5 by the use of an automatic analyzer (made by Hitachi. Ltd. and sold under the product code of "736-20"). The body weight of each rabbit was measured at the rate of once a week throughout the entire duration of the administration.

For the next data set, the system named is ICR mice. The experiment in a line: Test for acute toxicity. The data set is classed as in vivo. Conditions: 500 mg/kg orally, suspension in aqueous 5% gum arabic solution, visual inspection for one week. How it is done:
The agent of this invention for preventing and curing arteriosclerosis was tested for acute toxicity with a view to confirming the safety. Groups each formed of three ICR mice aged 4 to 5 weeks were used for the test. The same TMG as mentioned above was suspended as the chromanol glucoside in an aqueous 5% gum arabic solution. The suspension was orally administered to the mice at a dosage of 500 mg/kg as reduced to TMG and the mice were kept under visual inspection for one week. To the control group, the aqueous 5% gum arabic solution was orally administered at a rate of 0.3 ml.

Setting [2] is: TMG 800 mg/head/day for 27 weeks.
The mark [3] stands for this setting: blood serum, TMG 800 mg/head/day in feed, average ± SE.

On to `Cc1c(C)c2c(c(C)c1O)CCC(C)(C[C@H]1O[C@H](CO)[C@@H](O)[C@H](O)[C@H]1O)O2` (stereo partly drawn) [TMG, 2-(α-D-glucopyranosyl)methyl-2,5,7,8-tetramethyl chroman-6-ol], for which, in data set [1] (setting [2]), the “activity of lowering the blood serum lipids (T-CHO, TG, PL, LDL-CHO)” value is on record as “no activity” and the “biochemical test of blood” value is listed as “no sign of abnormality”. Further, the Body weight in data set [1] (TMG 800 mg/head/day in feed, average ± SE) is on record as 2.89 ± 0.11 kg. In data set [1] (setting [3]), this compound yielded an ALB of 2.4 ± 0.1 g/dL, an ALP of 87± 5 mU/ml, a ChE of 0.19 ± 0.05 U/ml and a GOT of 26.0 ± 11.1 mU/ml. In data set [1] (setting [3]), this compound registered a GPT of 59.7 ± 12.3 mU/ml, an LDH of 97 ± 4 mU/ml, a PL of 459 ± 52 mg/dL and a T-CHO of 934 ± 49 mg/dL. In addition, the TG in data set [1] (setting [3]) stood at 169 ± 23 mg/dL. Further, the fatality result with ICR mice was “None of the mice”.
